Reference: US4165371A, “1,2,3,4,5,6-Hexahydro-1,6-methano-3-benzazocines” (priority 1976, dated 1979)

Experiments:
[1] = format: in vivo; details: mouse hot plate, intravenous; for ED50: range in parentheses
Protocol: (c) The presence of certain N-substituents would confer antagonist activity on members of this new ring system, Tests for analgesic activity were conducted using intravenous administration in the reliable Eddy mouse hot plate assay described in J. Pharmacol. Exp. Ther. […] (1953). The results are set forth in Table 1, together with the activities of morphine and codeine reported as evaluation standards.

[2] = test system: monkeys, physically dependent on morphine; assay: Physical dependence liability: Single Dose Suppression (SDS) in withdrawn morphine-dependent monkeys; format: in vivo, monkey; details: 2 monkeys
Protocol: (§1) Physical Dependence Liability testing was conducted on Compounds A, B, C and F of Table 1. For determining Single Dose Suppression (SDS) data monkeys, physically dependent on 3.0 mg/kg of morphine sulfte q6H, were withdrawn until abstinence signs of intermediate severity were present (12-14 hours). The coded drug was injected at this time by persons other than the observer. The monkeys were graded just prior to injection and at intervals of 1/2, 1, 2, 3, 4, 5 and 6 hours after injection. Grades were based on withdrawal intensity or opiate-like depression and side effects, if present. The results are shown in Tables 2 through 5 together with evaluations thereof by Dr. Henry H. Swain at the University of Michigan. Dosages are in mg/kg.

[3] = test system: Normal monkeys (not dependent on morphine); assay: Normal monkeys (not dependent on morphine): attempt to elicit the narcotic syndrome; format: in vivo, monkey
[4] = test system: morphine dependent monkeys; assay: Physical dependence liability testing, overall evaluation; format: in vivo, monkey; details: for Estimated Physical Dependence Capacity: at doses tested
Protocol: as §1

[5] = test system: Non-withdrawn, morphine dependent monkeys; assay: Attempted precipitation of abstinence in non-withdrawn, morphine-dependent monkeys (NW); format: in vivo, monkey; details: for Effects, precipitation of abstinence signs (NW): 2 monkeys

Structure (SMILES)	duration [1] [min]	onset [1] [min]	peak [1] [min]	ED50 [1]	Effects, Single Dose Suppression ([2]; 2.0 mg/kg)	Estimated Physical Dependence Capacity [4]	other results
c1ccc(CCN2CCC3CC(C2)c2ccccc23)cc1 (centres unmarked)	123	4.7	25.6	8.8 (6.2-12.5) mg/kg	–	–	–
CCCN1CCC2CC(C1)c1ccccc12 (centres unmarked)	120	3.6	32.1	16.2 (11.7-22.4) mg/kg	–	–	–
c1ccc2c(c1)C1CCNCC2C1 (centres unmarked) [A]	97.5	3.3	18.0	4.9 (3.6-6.5) mg/kg	No apparent effect	Not morphine-like	narcotic signs [3]: no obvious narcotic signs were observed; Narcotic signs in normals ([3]; 8.0 mg/kg, 2 monkeys): No obvious narcotic signs; morphine antagonism [5]: not morphine antagonists; precipitation of the morphine abstinence syndrome [5]: no such result was observed
CN1CCC2CC(C1)c1ccccc12 (centres unmarked) [B]	104	3.2	20.3	4.2 (2.6-6.7) mg/kg	No apparent effect	Little or none at doses tested	Effects, Single Dose Suppression ([2]; 4.0 mg/kg): No obvious effect; narcotic signs [3]: no obvious narcotic signs were observed; morphine antagonism [5]: not morphine antagonists; precipitation of the morphine abstinence syndrome [5]: no such result was observed; Effects, precipitation of abstinence signs (NW) ([5]; 4.0 mg/kg): No obvious effect; Effects, precipitation of abstinence signs (NW) ([5]; 8.0 mg/kg): No obvious effect
c1ccc2c(c1)C1CCN(CC3CC3)CC2C1 (centres unmarked) [C]	–	–	–	–	–	None	Effects, Single Dose Suppression ([2]; 5.0 mg/kg): No obvious effect; Effects, Single Dose Suppression ([2]; 10.0 mg/kg): No obvious effect; Remarks: direct effects / convulsions ([4]; doses tested): The drug causes convulsions; Dose estimated to be equivalent to 3.0 mg/kg of morphine sulfate ([4]; evaluation in words): Not morphine-like
C=CCN1CCC2CC(C1)c1ccccc12 (centres unmarked) [F]	119	3.2	16.3	19.4 (13.1-28.7) mg/kg	No apparent effect	None	Effects, Single Dose Suppression ([2]; 1.0 mg/kg): No apparent effect; Effects, Single Dose Suppression ([2]; 4.0 mg/kg): No apparent effect; Effects, Single Dose Suppression ([2]; 8.0 mg/kg): No apparent effect; Effects, Single Dose Suppression ([2]; 16.0 mg/kg): No obvious effect
COc1ccc2c3c1O[C@H]1[C@@H](O)C=C[C@H]4[C@@H](C2)N(C)CC[C@@]341 [codeine, reference compound]	–	–	–	7.5 (6.8-8.3) mg/kg	–	–	–
CN1CC[C@]23c4c5ccc(O)c4O[C@H]2[C@@H](O)C=C[C@H]3[C@H]1C5 [morphine, reference compound]	–	–	–	1.2 (0.9-1.3) mg/kg	–	–	–
